The text below walks through data of ChEMBL document CHEMBL1139693, “Structure-based design of a novel thiazolone scaffold as HCV NS5B polymerase allosteric inhibitors” (Bioorg Med Chem Lett, 2006).

A short description of the assay: Inhibition of HCV NS5B polymerase. The arrangement: species or system Hepacivirus hominis.

One may read the IC50 as the midpoint of a concentration-inhibition curve. `Cc1ccc(S(=O)(=O)NC2=NC(=O)/C(=C/c3ccc(C)o3)S2)cc1`: the midpoint of inhibition, the IC50, lay at 2000 nM.
